Reference: patent publication US20130165368A1, “ANTIMICROBIAL COMPOUNDS” (priority 2010, published 2013)
In brackets after ≈: the same amount, converted by molar mass. Read-outs that look alike come from different tables or passages of the source.

Legend:
Type in all cases: cell-based
Acinetobacter baumannii = test: MIC agar dilution, micro-organism 10 (19606); settings: Acinetobacter baumannii 19606
Protocol: (§1) Throughout the period of testing the microbial strains were subcultured and incubated for 18-20 hours at 37° C. on a weekly basis. Horse blood agar plates were used to sustain the micro-organisms both prior to and throughout testing. The alkoxylated alkanols listed in Table II below were obtained (these are obtainable from Sigma-Aldrich Company Ltd, Dorset, England), each having a GC purity of at least 97%.
(§2) Molar equivalent concentrations were used to allow comparison between compounds of differing molecular mass. Due to weighing difficulties, any compound in solid form was melted in a water bath prior to dilution. To make ten-times strength concentrations, which takes into account agar dilution, 0.0352 mmol of each compound was weighed into plastic universal bottles and 4 mL of sterile distilled water (SDW) was added. To produce a homogenous emulsion the universals were vortexed; once achieved the emulsions were serial diluted by adding 2 mL to 2 mL of SDW.
(§3) Myristyl alcohol and lauryl alcohol were re-weighed and dissolved in 25 μL of the polar solvent 1-methyl-2-pyrrolidone (M6762; Sigma-Aldrich) in sterile glass universals due to an inability to achieve an even suspension. To maintain an even emulsion in the presence of SDW 37.5 μL of the non-ionic detergent Tween 20 (P1379, Sigma-Aldrich) was also added. 3.9375 mL of SDW was added to these, to create a 4 mL volume; they were vortexed and diluted as before.
(§4) For every 100 mL of Isosensitest agar (IST) (CM0471; Oxoid, Basingstoke, England), 3.1 g of the IST powder was added to 100 mL SDW (as per manufacturer's instructions) and sterilised for 15 minutes at 121° C. Once sterilised, the molten agar was cooled to 50° C. in a water-bath. Subsequently 4.8 g of CCEY powder (BC2160; Bioconnections, Wetherby, England), also known as Brazier's medium, was added to 100 mL SDW for every 100 mL of agar needed. This was then sterilised for 15 minutes at 121° C. Once sterilised the molten agar was cooled to 50° C. in a water-bath and 4 mL of egg-yolk emulsion (S2073; TCS Biosciences Ltd, Buckingham, United Kingdom) and 1 mL of lysed defibrinated horse blood (HB035; TCS Biosciences Ltd, Buckingham, United Kingdom) were also added for every 100 mL needed. Horse blood lysis is achieved by dilution to half concentration with SDW; when fully lysed the mixture will turn dark red in colour.
(§5) 18 mL agar was added to each universal and then poured into sterile Petri dishes. This step creates a 1/10 dilution resulting in agar plates of the required strength. Control plates for each set of strains were created by adding 18 mL of agar to 2 mL of SDW.
(§6) Suspensions of each bacterial species were prepared with a density equal to that of a 0.5 McFarland standard using a densitometer. All suspensions were made using sterile distilled water and fresh 18-20 hour cultures. As a 0.5 McFarland standard contains 1.5×10^8 CFU/mL and the multipoint inoculators applies 1 μL spots of liquid, each bacterial suspension was diluted 1/15 (20 μL suspension to 280 μL sterile distilled water).
(§7) Bacterial suspensions were prepared from fresh 18-24 hour cultures as previously described. 1 μL of each strain was inoculated onto all 100 agar plates containing a different chemical concentration and the 2 control plates. This was done using a multipoint inoculator which inoculates 20 strains per plate. All plates were incubated for 22 hours at 37° C. in aerobic conditions.
(§8) Each plate was examined for bacterial growth after 22 and 48 hours, with each being incubated in between examinations. A positive result was recorded as growth of ≧10 colonies. A negative result was recorded as growth of <10 colonies as this is equivalent to 99.9% inhibition. The lowest concentration of chemical that inhibited growth was recorded as the MIC. The results are recorded in Table IV below, where the numbers are quoted in mmol/L.
(§9) Further experiments have also been conducted to determine the MIC of a number of other compositions as follows. […]

Pseudomonas aeruginosa = test: MIC agar dilution, micro-organism 7 (10662); settings: Pseudomonas aeruginosa 10662
Protocol: as §1, §2, §3, §4, §5, §6, §7, §8, §9

Yersinia enterocolitica = test: MIC agar dilution, micro-organism 8 (11176); settings: Yersinia enterocolitica 11176
Protocol: as §1, §2, §3, §4, §5, §6, §7, §8, §9

Salmonella typhimurium = test: MIC agar dilution, micro-organism 6 (74); settings: Salmonella typhimurium 74
Protocol: as §1, §2, §3, §4, §5, §6, §7, §8, §9

Serratia marcescens = test: MIC agar dilution, micro-organism 5 (10211); settings: Serratia marcescens 10211
Protocol: as §1, §2, §3, §4, §5, §6, §7, §8, §9

Klebsiella pneumoniae = test: MIC agar dilution, micro-organism 2 (9528); settings: Klebsiella pneumoniae 9528
Protocol: as §1, §2, §3, §4, §5, §6, §7, §8, §9

Enterobacter cloacae = test: MIC agar dilution, micro-organism 4 (11936); settings: Enterobacter cloacae 11936
Protocol: as §1, §2, §3, §4, §5, §6, §7, §8, §9

Burkholderia cepacia = test: MIC agar dilution, micro-organism 9 (1222); settings: Burkholderia cepacia 1222
Protocol: as §1, §2, §3, §4, §5, §6, §7, §8, §9

Gram-negative species = test: Additional antibacterial data, MIC (Table XII); settings: 24 hrs at 37° C.; for MIC (%) volume/volume: inoculum 10000 cfu/spot
Protocol: (§10) Using the protocols outlined in the example above, the inventors further investigated the antibacterial effects of representative alkoxylated alkanol compounds. The inoculum was 10000 cfu/spot; inclubation was for 24 hrs at 37° C.

[1] = test system: Stenotrophomonas maltophilia; test: Additional antibacterial data, MIC (Table XII); settings: 24 hrs at 37° C.; for MIC (%) volume/volume: Stenotrophomonas maltophilia 10257, inoculum 10000 cfu/spot
Protocol: as §10

Staphylococcus aureus = test: Additional antibacterial data, MIC (Table XII), Gram positive control; settings: Staphylococcus aureus 470273M (control); inoculum 10000 cfu/spot; 24 hrs at 37° C.
Protocol: as §10

[2] = test system: Staphylococcus aureus(MRSA); test: as above; settings: Staphylococcus aureus(MRSA) 380022E (control); inoculum 10000 cfu/spot; 24 hrs at 37° C.
Protocol: as §10

CCCCCCCCCCCCCCCCO [C0, 1-Hexadecanol, reference compound]
MIC (Acinetobacter baumannii; 22 hrs, read-out: MIC): > 880 µM | MIC (Acinetobacter baumannii; 48 hrs, read-out: MIC): > 880 µM | MIC (Pseudomonas aeruginosa; 22 hrs, read-out: MIC): > 880 µM | MIC (Pseudomonas aeruginosa; 48 hrs, read-out: MIC): > 880 µM | MIC (Yersinia enterocolitica; 22 hrs, read-out: MIC): > 880 µM | MIC (Yersinia enterocolitica; 48 hrs, read-out: MIC): > 880 µM | MIC (Salmonella typhimurium; Salmonella enterica, 22 hrs, read-out: MIC): 880 µM (≈ 213 µg/mL) | MIC (Salmonella typhimurium; Salmonella enterica, 48 hrs, read-out: MIC): 880 µM (≈ 213 µg/mL) | MIC (Serratia marcescens; 22 hrs, read-out: MIC): > 880 µM | MIC (Serratia marcescens; 48 hrs, read-out: MIC): > 880 µM | MIC (Klebsiella pneumoniae; 22 hrs, read-out: MIC): 880 µM (≈ 213 µg/mL) | MIC (Klebsiella pneumoniae; 48 hrs, read-out: MIC): 880 µM (≈ 213 µg/mL) | MIC (Enterobacter cloacae; 22 hrs, read-out: MIC): > 880 µM | MIC (Enterobacter cloacae; 48 hrs, read-out: MIC): > 880 µM | MIC (Burkholderia cepacia; 22 hrs, read-out: MIC): > 880 µM | MIC (Burkholderia cepacia; 48 hrs, read-out: MIC): > 880 µM

CCCCCCCCCCCCCOCCOCCOCCOCCOCCOCCO [C13E6, polyoxyethylene (6) tridecyl alcohol]
MIC (Acinetobacter baumannii; 22 hrs): >880 µM | MIC (Acinetobacter baumannii; 48 hrs): >880 µM | MIC (Pseudomonas aeruginosa; 22 hrs): >880 µM | MIC (Pseudomonas aeruginosa; 48 hrs): >880 µM | MIC (Yersinia enterocolitica; 22 hrs): >880 µM | MIC (Yersinia enterocolitica; 48 hrs): >880 µM | MIC (Salmonella typhimurium; 22 hrs): >880 µM | MIC (Salmonella typhimurium; 48 hrs): >880 µM | MIC (Serratia marcescens; 22 hrs): >880 µM | MIC (Serratia marcescens; 48 hrs): >880 µM | MIC (Klebsiella pneumoniae; 22 hrs): >880 µM | MIC (Klebsiella pneumoniae; 48 hrs): >880 µM | MIC (Enterobacter cloacae; 22 hrs): >880 µM | MIC (Enterobacter cloacae; 48 hrs): >880 µM | MIC (Burkholderia cepacia; 22 hrs): >880 µM | MIC (Burkholderia cepacia; 48 hrs): >880 µM

CCCCCCCCCCCCOCCO [L1, Ethylene Glycol Monododecyl Ether]
MIC (%) volume/volume (Gram-negative species; Acinetobacter baumannii 19606): 1 % volume/volume | MIC (%) volume/volume (Gram-negative species; Escherichia coli 10418): 0.25 % volume/volume | MIC (%) volume/volume (Gram-negative species; Klebsiella pneumoniae 9528): 0.5 % volume/volume | activity against selected Gram-negative species (Gram-negative species; at higher concentrations, 10000 cfu/spot): shows activity | MIC (%) volume/volume [1]: 0.5 % volume/volume | MIC (%) volume/volume (Staphylococcus aureus): 0.25 % volume/volume | MIC (%) volume/volume [2]: 0.25 % volume/volume

CCCCCCCCCCCCOCCOCCOCCOCCO [L4, Tetraethylene Glycol Monododecyl Ether]
MIC (%) volume/volume (Gram-negative species; Acinetobacter baumannii 19606): >4 % volume/volume | MIC (%) volume/volume (Gram-negative species; Escherichia coli 10418): >4 % volume/volume | MIC (%) volume/volume (Gram-negative species; Klebsiella pneumoniae 9528): >4 % volume/volume | MIC (%) volume/volume [1]: 0.06 % volume/volume | susceptibility of Stenotrophomonas maltophilia ([1]; relatively low concentrations, 10000 cfu/spot): susceptible | MIC (%) volume/volume (Staphylococcus aureus): 0.03 % volume/volume | MIC (%) volume/volume [2]: 0.03 % volume/volume
